Laboratory results published in publication PMC9321952 (Molecular Ecology, 2022).

How the values were obtained:
Assay in all cases: Fluo-4 calcium fluorescence assay, HEK293 cells
Settings in all cases: agonist; co-expressed with ItypOrco; room temperature
HabiOR4^HsCO = assay type: cell-based, Hylobius abietis
HabiOR3 = assay type: cell-based, Hylobius abietis
DponOR8^HsCO = assay type: cell-based, Dendroctonus ponderosae
ItypOR6 = assay type: cell-based, Ips typographus

| SMILES | EC50 (HabiOR4^HsCO) | EC50 (HabiOR3) | EC50 (DponOR8^HsCO) | EC50 (ItypOR6) |
| --- | --- | --- | --- | --- |
| CCC/C=C/CO [E2-hexenol] | 3.88 µM | – | – | – |
| CCCCCCO [1-hexanol] | 2.85 µM | – | – | – |
| OCCc1ccccc1 [2-phenylethanol] | – | 8.54 µM | 5.12 µM | 3.45 µM |

Continued, values first:

| EC50 (HabiOR4^HsCO) | EC50 (HabiOR3) | EC50 (DponOR8^HsCO) | EC50 (ItypOR6) | SMILES |
| --- | --- | --- | --- | --- |
| 7.34 µM | – | – | – | CCC/C=C\CO [Z2-hexenol] |
| 7.99 µM | – | – | – | CC/C=C\CCO [Z3-hexenol] |
